≈ marks a conversion by molar mass, not a printed value.
Columns and labels:
Tagia sp. = conditions: acute, duration: 14 days
Apis mellifera = conditions: acute; duration: 48 hours; oral; unspecified; mortality
Landoltia sp. = conditions: acute; duration: 7 days; biomass
Oncorhynchus mykiss = conditions: chronic/long-term; duration: 21 days; mortality
Daphnia magna = conditions: chronic/long-term; duration: 21 days; reproduction
Anas platyrhynchos = conditions: oral, mortality
Bibionidae = conditions: chronic/long-term; duration: 28 days; development
Canidae = conditions: subchronic; duration: 90 days; oral; Dog Other; clinical chemistry
Lepomis macrochirus = conditions: acute; duration: 96 hours; mortality
Anabaena flosaquae = conditions: acute; duration: 72 hours; biomass
Aphidius rhopalosiphi = test: LR50; higher = less toxic; conditions: not reported; mortality

Row | Structure (SMILES) | NOEC (Tagia sp.; body weight) | LC50 (Tagia sp.; mortality) | LD50 (Apis mellifera) | NOEC (Landoltia sp.) | NOEC (Oncorhynchus mykiss) | LD50 (Rattus norvegicus; acute, oral, mortality) | NOAEL (Rattus norvegicus; developmental, development) | NOEL (Rattus norvegicus; reproduction developmental, reproduction) | NOEC (Daphnia magna) | LC50 (Colinus virginianus; acute, oral, diet, mortality) | LD50 (Colinus virginianus; acute, oral, mortality) | NOEC (Colinus virginianus; reproduction developmental) | LC50 (Anas platyrhynchos; short-term, feed) | NOEC (Bibionidae) | NOAEL (Canidae) | LC50 (Lepomis macrochirus) | NOEC (Anabaena flosaquae) | LR50 (Aphidius rhopalosiphi) | LD50 (Anas platyrhynchos; acute, unspecified)
1 | N#CN [Cyanamide] | 55.7 mg/kg | > 112 mg/kg | > 10 µg/piece | 0.5 mg/L | 3.7 mg/L | 223 mg/kg-day | 5 mg/kg-day | 3.75 mg/kg-day | 0.1 mg/L | > 1040 mg/kg-day | 350 mg/kg-day | 13.3 mg/kg-day | > 435 mg/kg-day | 6.6 mg/L | 0.6 mg/kg-day | 43.1 µg/mL (≈ 1030 µM) | 0.05 mg/L | 432 g/ha | 
2 | N#CN=C(N)N [Cyanoguanidine] |  |  |  |  |  |  |  |  |  |  |  |  |  |  |  |  |  |  | > 2000 mg/kg-day

Reference: EPA's ToxValDB 9.5 (doi:10.2903/j.efsa.2010.1873)
